Changes are numbered by the printed parent chain.
Columns and labels:
hFFA3 R71A = biological target: T1, hFFA3 R71A (Homo sapiens, UniProt O14843, R71A); assay: Potency at FFA3 mutant R71A; format: cell-based
T1 sequence (O14843 1-346 R71A): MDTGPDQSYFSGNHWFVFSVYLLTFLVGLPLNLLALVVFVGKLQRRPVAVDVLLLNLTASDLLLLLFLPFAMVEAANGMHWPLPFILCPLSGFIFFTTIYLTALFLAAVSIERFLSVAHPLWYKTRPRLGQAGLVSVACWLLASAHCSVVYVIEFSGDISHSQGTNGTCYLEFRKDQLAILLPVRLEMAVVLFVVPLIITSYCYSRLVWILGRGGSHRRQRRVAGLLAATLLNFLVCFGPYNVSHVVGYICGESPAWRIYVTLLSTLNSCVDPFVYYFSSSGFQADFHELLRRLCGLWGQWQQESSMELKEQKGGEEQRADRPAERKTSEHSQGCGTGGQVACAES
Protocol: The previously published compound 1 was not affected by mutation of either R185A or R258A in the orthosteric binding site, and the compounds were therefore believed to be allosteric modulators. […] After the publication of the FFA1 crystal structure in complex with an allosteric agonist located in the TM region close to the intracellular site,[32] a homology model of hFFA3 was constructed using Modeller. […] Thus, additional docking of (R)-1 in this site were performed to find poses where Q131, but not R126, show a central role in binding. […] The narrow binding cavity around the core scaffold is in agreement with the restrained SAR observed for this series and the furan moiety pointing out of the binding cavity might explain the flexibility in substituents at this site (Figure 3c,d). Although Q131A impacts the potency of (R)-1 with high significance, the magnitude of the effect is lower than what would be generally expected for the removal of a hydrogen bond interaction; thus, additional studies are required to confirm the proposed binding site.

FFA3 R258A = system: FFA3 R258A; set-up: method as in PMID 24870406; conditions: orthosteric binding site; cited from earlier work
FFA3 R185A = system: FFA3 R185A; set-up: method as in PMID 24870406; conditions: orthosteric binding site; cited from earlier work
hFFA3 = biological target: T2, hFFA3 (Homo sapiens, UniProt O14843); assay: biochemical; conditions: for GTPγS pEC50: hFFA3, mean of ≥3 independent experiments ± standard error; for Emax: read-out: GTPγS Emax
T2 sequence (O14843 1-346): T1 sequence (O14843 1-346 R71A) with A71R
How it was run: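 Membranes from doxycycline (100 ng/mL)-induced Flp-In T-REx HEK293 cells expressing FFA3 incubated with [^35S]GTPγS (50 nCi/tube) 1 h at 25 °C. Bound [^35S]GTPγS collected by filtration and counted by liquid scintillation as a measure of Gi/o activation.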

mFFA3 = biological target: T3, mFFA3 (Mus musculus, UniProt Q3UFD7); assay: biochemical
T3 sequence (Q3UFD7 1-319): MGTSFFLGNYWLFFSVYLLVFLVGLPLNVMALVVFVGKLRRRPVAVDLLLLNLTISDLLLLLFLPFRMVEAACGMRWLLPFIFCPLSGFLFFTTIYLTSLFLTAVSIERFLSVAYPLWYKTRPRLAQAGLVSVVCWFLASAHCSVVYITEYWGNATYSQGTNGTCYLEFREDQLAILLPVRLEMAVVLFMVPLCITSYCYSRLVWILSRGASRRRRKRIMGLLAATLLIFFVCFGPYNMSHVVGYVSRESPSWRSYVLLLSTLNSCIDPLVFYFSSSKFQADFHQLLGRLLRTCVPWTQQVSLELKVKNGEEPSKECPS
Protocol: Reactions were initiated with the addition of [^35S]GTPγS at 50 nCi per tube; reactions were terminated after 1 h of incubation at 25 °C by rapid filtration through GF/C glass filters using a 24-well Brandel cell harvester (Alpha Biotech, Glasgow, UK). Unbound radioligand was removed from filters by washing three times with ice-cold wash buffer (50 mM Tris–HCl, pH 7.4, and 10 mM MgCl2), and [^35S]GTPγS binding was determined by liquid scintillation spectrometry.

[1] = Chemical stability in DMSO (NMR); format: physicochemical
Protocol: To further ensure the suitability of 57 as a tool compound for in vitro studies, the chemical stability was also evaluated in dimethyl sulfoxide (DMSO).

[2] = system: cells dissociated from mouse dorsal root ganglia; assay: Intracellular calcium in dorsal root ganglion cells of wild-type and FFA3 KO mice; format: cell-based; conditions: 5 μM; DRG cells of wild type vs FFA3 KO mice
Protocol: Colonic innervating DRGs were isolated from the T9-L2 region of the spinal cord of C57/BL6 mice and from FFA3 knock-out animals and immediately placed in cold Hanks’ balanced salt solution (HBSS; Sigma-Aldrich). Isolated DRGs were initially digested with HBSS containing L-cysteine (0.3 mg/mL) and papain (2.0 mg/mL) for 20 min at 37 °C. The solution was removed and replaced with HBSS contain collagenase (4.0 mg/mL) and dispase (4.0 mg/mL) (20 min at 37 °C) for further digestion. The collagenase solution was then replaced with DMEM to stop the reaction. The DRGs were finally dissociated by mechanical trituration using a pipette. Dissociated cells were plated on matrigel-coated coverslips and placed in an incubator (37 °C and 5% CO2). Following a 2 h incubation, cells were flooded with 90% DMEM (Sigma) supplemented with 10% fetal calf serum and 1% PenStrep and further incubated overnight at 37 °C and 5% CO2.
To measure intracellular calcium and its potential regulation, dissociated cells on the coverslips were loaded with Fura 8-AM (3 μM) (Stratech Scientific Limited) for 20 min at 37 °C in the dark. […]

Row | Structure (SMILES) | effect of mutation R71A on potency (hFFA3 R71A) | effect of mutation R258A (FFA3 R258A) | effect of mutation R185A (FFA3 R185A) | higher potency than 3-furyl derivative 2 (hFFA3; GTPγS assay) | GTPγS pEC50 (hFFA3) | Emax (hFFA3) [%] | EC50 (mFFA3) [nM] | chemical stability in DMSO ([1]; 4 °C, after 1 and 30 days, NMR) | chemical stability in DMSO ([1]; rt, not protected from light, 7 days) | chemical stability in DMSO ([1]; rt, not protected from light, 30 days) | elevation of intracellular calcium levels [2]
1 | CC1=C(C(=O)Nc2ccccc2C)C(c2ccco2)C2=C(CCCC2=O)N1 (stereo not shown) [Compound 1, 4-(Furan-2-yl)-2-methyl-5-oxo-N-(o-tolyl)-1,4,5,6,7,8-hexahydroquinoline-3-carboxamide, reference compound] | did not affect | not affected | not affected | approximately 2 fold | 5.65 ± 0.07 | 100 |  |  |  |  | 
2 | CC1=C(C(=O)Nc2cc(Cl)ccc2Cl)C(c2ccco2)C2=C(CCCC2=O)N1 (stereo not shown) [Compound 16, reference compound] |  |  |  |  | 5.74 ± 0.11 | 120 |  |  |  |  | 
3 | CCCC1C(C(=O)Nc2cc(Cl)ccc2Cl)=C(C)NC2=C1C(=O)CCC2 (stereo not shown) [Compound 57, N-(2,5-Dichlorophenyl)-2-methyl-5-oxo-4-propyl-1,4,5,6,7,8-hexahydroquinoline-3-carboxamide] |  |  |  |  |  |  | 2000 | complete stability | fully stable | minor decomposition | large elevation in intracellular calcium levels in wild type but not FFA3 KO cells
